Assay results: patent publication US20240400512A1, “ANALOGS OF N,N,N-TRIMETHYL-4-PHOSPHORYLOXYTRYPTAMINE” (Terran Biosciences Inc., priority 2021, published 2024)

Assay: Metabolic stability in human liver microsomes
Format: in vitro ADME
Details: for half-life and intrinsic clearance compared to the respective reference compounds / in vitro clearance compared with 4-OH-Trimethyltryptamine iodide (reference compound A) / in vitro clearance compared with 4-OH-Dimethylethyltryptamine iodide (reference compound B): based on Table 2; for Minus cofactor control (% of 0 min): incubation without cofactor, comment: possible chemical instability or non-cofactor dependent enzymatic degradation; for half-life at 0.25 μM / microsomal CLint at 0.25 μM: pH 7.4, NADPH; for half-life at 0.25 μM / microsomal CLint at 0.25 μM / CLint (μL/min/mg protein) / t1/2: 37° C.; for microsomal CLint at 0.25 μM: read-out: CLint (μL/min/mg protein); for CLint (μL/min/mg protein) / t1/2: NADPH
Protocol: Microsomal Assay: Human liver microsomes (20 mg/mL) are obtained. B-nicotinamide adenine dinucleotide phosphate, reduced form (NADPH), magnesium chloride (MgCl2), and dimethyl sulfoxide (DMSO) are purchased from Sigma-Aldrich.
Determination of Metabolic Stability: 7.5 mM stock solutions of test compounds are prepared in DMSO. […] The diluted microsomes are added to wells of a 96-well deep-well polypropylene plate in triplicate. […] Reactions are initiated by addition of pre-warmed NADPH solution. The final reaction volume is 0.5 mL and contains 4.0 mg/mL human liver microsomes, 0.25 μM test compound, 2 mM NADPH in 0.1 M potassium phosphate buffer, pH 7.4, and 3 mM MgCl2. The reaction mixtures are incubated at 37° C., and 50 pL aliquots are removed at 0, 5, 10, 20, and 30 min or other suitable interval and added to shallow-well 96-well plates containing 50 pL of ice-cold CAN (acetonitrile) with internal standard to stop the reactions. The plates are stored at 4° C. for 20 minutes after which 100 pL of water is added to the wells of the plate before centrifugation to pellet precipitated proteins. Supernatants are transferred to another 96-well plate and analysed for amounts of the test compound remaining by LC-MS/MS using, for example, an Applied Bio-systems API 4000®) mass spectrometer. The same procedure is followed for the non-deuterated counterparts of the test compounds and for the positive control, 7-ethoxy coumarin (1 μM). Testing can be done in triplicate.
Data analysis: The in vitro T1/2s for the test compounds is calculated from the slopes of the linear regression of % test compound remaining (In) vs incubation time.
where k=−[slope of linear regression of % parent remaining (In) vs incubation time. The apparent intrinsic clearance is calculated using the following equation: […]
Data analysis can be performed using Microsoft Excel® Software.

[2H]C([2H])(c1c[nH]c2cccc(OC(C)=O)c12)C([2H])([2H])[N+](C([2H])([2H])[2H])(C([2H])([2H])[2H])C([2H])([2H])[2H].[I-] [Compound 10, 4-Acetoxy-3-(2-(tris(methyl-d3)-λ^4-azaneyl)ethyl-1,1,2,2-d4)-1H-indole iodide]
half-life and intrinsic clearance compared to the respective reference compounds: exhibit differences in half-life and intrinsic clearance | Minus cofactor control (% of 0 min): Minus cofactor control low (44% of 0 min). | half-life at 0.25 μM: 0.775 h | microsomal CLint at 0.25 μM: 29.8 µL/min/mg

[2H]C([2H])(c1c[nH]c2cccc(OC(C)=O)c12)C([2H])([2H])[N+](C)(C)CC.[I-] [Compound 8, 4-Acetoxy-3-(2-(ethyldimethyl-λ^4-azaneyl)ethyl-1,1,2,2-d4)-1H-indole iodide]
half-life and intrinsic clearance compared to the respective reference compounds: exhibit differences in half-life and intrinsic clearance | Minus cofactor control (% of 0 min): Minus cofactor control low (37% of 0 min). | half-life at 0.25 μM: 0.477 h | microsomal CLint at 0.25 μM: 48.4 µL/min/mg

[2H]C([2H])(c1c[nH]c2cccc(O)c12)C([2H])([2H])[N+](C)(C)C.[I-] [Compound 1, 4-Hydroxy-3-(2-(trimethyl-λ^4-azaneyl)ethyl-1,1,2,2-d4)-1H-indole iodide]
in vitro clearance compared with 4-OH-Trimethyltryptamine iodide (reference compound A): significantly lower in vitro clearance | half-life at 0.25 μM: 4.12 h | microsomal CLint at 0.25 μM: 5.6 µL/min/mg

[2H]C([2H])(c1c[nH]c2cccc(O)c12)C([2H])([2H])[N+](C)(C)CCC.[I-] [Compound 3, 3-(2-(Dimethyl(propyl)-λ^4-azaneyl)ethyl-1,1,2,2-d4)-4-hydroxy-1H-indole iodide]
half-life at 0.25 μM: 16.2 h | microsomal CLint at 0.25 μM: 1.42 µL/min/mg

[2H]C([2H])(c1c[nH]c2cccc(OC(C)=O)c12)C([2H])([2H])[N+](CC)(C([2H])([2H])[2H])C([2H])([2H])[2H].[I-] [Compound 12, 4-Acetoxy-3-(2-(ethylbis(methyl-d3)-λ^4-azaneyl)ethyl-1,1,2,2-d4)-1H-indole iodide]
half-life and intrinsic clearance compared to the respective reference compounds: exhibit differences in half-life and intrinsic clearance | Minus cofactor control (% of 0 min): Minus cofactor control low (40% of 0 min). | half-life at 0.25 μM: 0.558 h | microsomal CLint at 0.25 μM: 41.4 µL/min/mg

CCC[N+](C)(C)CCc1c[nH]c2cccc(OC(C)=O)c12.[I-] [reference compound F, 4-OAc-Dimethylpropyltryptamine iodide, reference compound]
CLint (μL/min/mg protein): 62.7 μL/min/mg protein | t1/2: 22.1 min | Minus cofactor control (% of 0 min): Minus cofactor control low (27% of 0 min).

C[N+](C)(C)CCc1c[nH]c2cccc(O)c12.[I-] [reference compound A, 4-OH-Trimethyltryptamine iodide, reference compound]
CLint (μL/min/mg protein): 6.81 μL/min/mg protein | t1/2: 204 min

[2H]C([2H])(c1c[nH]c2cccc(OC(C)=O)c12)C([2H])([2H])[N+](C)(C([2H])([2H])[2H])C([2H])([2H])[2H].[I-] [Compound 11, 4-Acetoxy-3-(2-(methylbis(methyl-d3)-λ^4-azaneyl)ethyl-1,1,2,2-d4)-1H-indole iodide]
half-life and intrinsic clearance compared to the respective reference compounds: exhibit differences in half-life and intrinsic clearance | Minus cofactor control (% of 0 min): Minus cofactor control low (51% of 0 min). | half-life at 0.25 μM: 0.797 h | microsomal CLint at 0.25 μM: 29 µL/min/mg

CC[N+](C)(C)CCc1c[nH]c2cccc(O)c12.[I-] [reference compound B, 4-OH-Dimethylethyltryptamine iodide, reference compound]
CLint (μL/min/mg protein): 5.41 μL/min/mg protein | t1/2: 256 min

[2H]C([2H])(c1c[nH]c2cccc(OC(C)=O)c12)C([2H])([2H])[N+](C)(C)C.[I-] [Compound 7, 4-Acetoxy-3-(2-(trimethyl-λ^4-azaneyl)ethyl-1,1,2,2-d4)-1H-indole iodide]
half-life and intrinsic clearance compared to the respective reference compounds: exhibit differences in half-life and intrinsic clearance | Minus cofactor control (% of 0 min): Minus cofactor control low (52% of 0 min). | half-life at 0.25 μM: 0.778 h | microsomal CLint at 0.25 μM: 29.7 µL/min/mg

[2H]C([2H])(c1c[nH]c2cccc(O)c12)C([2H])([2H])[N+](C)(C)CC.[I-] [Compound 2, 3-(2-(Ethyldimethyl-λ^4-azaneyl)ethyl-1,1,2,2-d4)-4-hydroxy-1H-indole iodide]
in vitro clearance compared with 4-OH-Dimethylethyltryptamine iodide (reference compound B): significantly lower in vitro clearance | half-life at 0.25 μM: 8.23 h | microsomal CLint at 0.25 μM: 2.81 µL/min/mg

COc1ccc2c(c1)[C@]13CCCC[C@@H]1[C@H](C2)N(C)CC3 [dextromethorphan, reference compound]
CLint (μL/min/mg protein): 54.9 μL/min/mg protein | t1/2: 25.3 min

[2H]C([2H])(c1c[nH]c2cccc(O)c12)C([2H])([2H])[N+](CC)(C([2H])([2H])[2H])C([2H])([2H])[2H].[I-] [Compound 6, 3-(2-(Ethylbis(methyl-d3)-λ^4-azaneyl)ethyl-1,1,2,2-d4)-4-hydroxy-1H-indole iodide]
in vitro clearance compared with 4-OH-Dimethylethyltryptamine iodide (reference compound B): significantly lower in vitro clearance | half-life at 0.25 μM: 5.28 h | microsomal CLint at 0.25 μM: 4.38 µL/min/mg

[2H]C([2H])(c1c[nH]c2cccc(OC(C)=O)c12)C([2H])([2H])[N+](C)(C)CCC.[I-] [Compound 9, 4-Acetoxy-3-(2-(dimethyl(propyl)-λ^4-azaneyl)ethyl-1,1,2,2-d4)-1H-indole iodide]
half-life and intrinsic clearance compared to the respective reference compounds: exhibit differences in half-life and intrinsic clearance | Minus cofactor control (% of 0 min): Minus cofactor control low (20% of 0 min). | half-life at 0.25 μM: 0.312 h | microsomal CLint at 0.25 μM: 74.3 µL/min/mg

[2H]C([2H])(c1c[nH]c2cccc(O)c12)C([2H])([2H])[N+](C)(C([2H])([2H])[2H])C([2H])([2H])[2H].[I-] [Compound 5, 4-Hydroxy-3-(2-(methylbis(methyl-d3)-λ^4-azaneyl)ethyl-1,1,2,2-d4)-1H-indole iodide]
in vitro clearance compared with 4-OH-Trimethyltryptamine iodide (reference compound A): significantly lower in vitro clearance | half-life at 0.25 μM: 101 h | microsomal CLint at 0.25 μM: 0.228 µL/min/mg

[2H]C([2H])(c1c[nH]c2cccc(O)c12)C([2H])([2H])[N+](C([2H])([2H])[2H])(C([2H])([2H])[2H])C([2H])([2H])[2H].[I-] [Compound 4, 4-Hydroxy-3-(2-(tris(methyl-d3)-λ^4-azaneyl)ethyl-1,1,2,2-d4)-1H-indole iodide]
in vitro clearance compared with 4-OH-Trimethyltryptamine iodide (reference compound A): significantly lower in vitro clearance | half-life at 0.25 μM: 57.7 h | microsomal CLint at 0.25 μM: 0.401 µL/min/mg

CC(=O)Oc1cccc2[nH]cc(CC[N+](C)(C)C)c12.[I-] [reference compound D, 4-OAc-Trimethyltryptamine iodide, reference compound]
CLint (μL/min/mg protein): 28.3 μL/min/mg protein | t1/2: 48.9 min | Minus cofactor control (% of 0 min): Minus cofactor control low (51% of 0 min).

CC[N+](C)(C)CCc1c[nH]c2cccc(OC(C)=O)c12.[I-] [reference compound E, 4-OAc-Dimethylethyltryptamine iodide, reference compound]
CLint (μL/min/mg protein): 46.4 μL/min/mg protein | t1/2: 29.9 min | Minus cofactor control (% of 0 min): Minus cofactor control low (38% of 0 min).
